Laboratory results reported in patent US20250215012A1, “IKZF2 DEGRADERS AND USES THEREOF” (REGENTS OF THE UNIVERSITY OF MICHIGAN, priority 2022, published 2025).
Like-named read-outs stand apart in the source and are kept apart here.

Target: IKZF2 (Homo sapiens (Human), UniProt Q96SW2+Q9UKS7)
Assay: IKZF2 HiBiT Assay (Jurkat-IKZF2-HiBiT cell line)
Format: cell-based
Conditions: for DC50: read-out: HiBit assay degradation analysis DC50; for Dmax: read-out: HiBit assay degradation analysis Dmax
Outline: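 IKZF2 degradation was assessed as HiBiT luminescence in Jurkat-IKZF2-HiBiT cells, using lytic detection after 24 h of compound treatment at 37 °C, 5% CO2.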

[1] = Jurkat-IKZF2-HiBiT cells, 24 hours

Sequence of IKZF2 (Q9UKS7 whole entry): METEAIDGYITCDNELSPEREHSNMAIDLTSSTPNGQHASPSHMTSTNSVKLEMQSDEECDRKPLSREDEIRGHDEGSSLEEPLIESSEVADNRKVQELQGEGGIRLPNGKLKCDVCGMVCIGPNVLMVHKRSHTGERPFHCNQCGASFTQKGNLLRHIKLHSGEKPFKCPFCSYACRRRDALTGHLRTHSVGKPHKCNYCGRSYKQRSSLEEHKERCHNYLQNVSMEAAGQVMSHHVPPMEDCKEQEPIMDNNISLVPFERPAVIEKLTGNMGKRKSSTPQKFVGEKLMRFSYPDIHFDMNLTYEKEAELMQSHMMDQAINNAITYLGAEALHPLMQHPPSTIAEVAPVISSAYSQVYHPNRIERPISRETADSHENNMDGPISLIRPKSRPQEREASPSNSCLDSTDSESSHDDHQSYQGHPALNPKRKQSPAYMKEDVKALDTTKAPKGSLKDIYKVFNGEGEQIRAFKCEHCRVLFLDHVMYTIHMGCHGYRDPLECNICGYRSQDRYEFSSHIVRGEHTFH
Sequence of IKZF2 (Q96SW2 whole entry): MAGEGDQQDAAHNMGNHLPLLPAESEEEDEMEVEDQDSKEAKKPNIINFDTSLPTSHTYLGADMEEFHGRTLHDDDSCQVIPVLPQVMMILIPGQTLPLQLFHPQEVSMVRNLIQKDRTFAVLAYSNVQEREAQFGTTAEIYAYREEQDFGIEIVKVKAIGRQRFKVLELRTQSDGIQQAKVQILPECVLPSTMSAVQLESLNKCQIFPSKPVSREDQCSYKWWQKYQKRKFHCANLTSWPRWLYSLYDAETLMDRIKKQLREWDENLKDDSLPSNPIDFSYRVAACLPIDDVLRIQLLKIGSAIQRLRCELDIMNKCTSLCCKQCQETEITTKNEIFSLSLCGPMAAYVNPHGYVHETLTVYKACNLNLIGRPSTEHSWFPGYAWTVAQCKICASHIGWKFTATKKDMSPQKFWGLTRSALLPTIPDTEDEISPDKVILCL
Sequence of IKZF2 (Q16531 whole entry partner): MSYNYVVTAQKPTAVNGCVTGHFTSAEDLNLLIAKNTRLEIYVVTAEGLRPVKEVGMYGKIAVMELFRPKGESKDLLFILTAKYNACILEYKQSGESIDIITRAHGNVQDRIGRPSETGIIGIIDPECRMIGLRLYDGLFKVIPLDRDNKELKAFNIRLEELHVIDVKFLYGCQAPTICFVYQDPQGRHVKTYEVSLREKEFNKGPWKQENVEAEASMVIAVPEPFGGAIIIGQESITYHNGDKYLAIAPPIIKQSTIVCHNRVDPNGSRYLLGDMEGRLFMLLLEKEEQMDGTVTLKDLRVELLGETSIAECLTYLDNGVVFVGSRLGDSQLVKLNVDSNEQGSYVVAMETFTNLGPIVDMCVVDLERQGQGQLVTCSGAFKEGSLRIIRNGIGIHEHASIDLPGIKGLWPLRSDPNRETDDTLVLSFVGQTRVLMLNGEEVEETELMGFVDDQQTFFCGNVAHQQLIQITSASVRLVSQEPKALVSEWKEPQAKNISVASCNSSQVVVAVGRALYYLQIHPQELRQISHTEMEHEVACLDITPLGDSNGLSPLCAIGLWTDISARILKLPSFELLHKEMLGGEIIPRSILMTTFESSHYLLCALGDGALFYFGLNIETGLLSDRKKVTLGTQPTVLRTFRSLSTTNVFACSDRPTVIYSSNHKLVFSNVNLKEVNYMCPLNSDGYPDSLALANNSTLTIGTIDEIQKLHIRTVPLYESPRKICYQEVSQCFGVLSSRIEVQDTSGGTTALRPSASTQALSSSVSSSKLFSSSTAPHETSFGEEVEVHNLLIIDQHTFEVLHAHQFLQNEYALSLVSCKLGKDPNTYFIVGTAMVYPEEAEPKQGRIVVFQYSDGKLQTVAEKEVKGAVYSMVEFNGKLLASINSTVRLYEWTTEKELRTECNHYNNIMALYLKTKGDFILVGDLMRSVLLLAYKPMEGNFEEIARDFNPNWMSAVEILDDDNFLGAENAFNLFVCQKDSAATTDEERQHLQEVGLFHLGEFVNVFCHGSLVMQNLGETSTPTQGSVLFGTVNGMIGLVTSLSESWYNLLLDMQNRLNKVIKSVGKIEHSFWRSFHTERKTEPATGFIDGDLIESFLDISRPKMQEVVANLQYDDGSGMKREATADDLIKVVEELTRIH

Structure (SMILES)	DC50 [1]	Dmax [1]	Dmax
O=C1CCC(N2Cc3c(ccc4c3OCC43CCN(Cc4cccc(Oc5ccccn5)c4)CC3)C2=O)C(=O)N1 (stereo not shown) [Compound A101, 3-(6-oxo-1′-(3-(pyridin-2-yloxy)benzyl)-6,8-dihydro-2H,7H-spiro[furo[2,3-e]isoindole-3,4′-piperidin]-7-yl)piperidine-2,6-dione]	< 50 nM	60 to 80%	
Cc1ccc(C(=O)Nc2cccc(CN3CCC4(CC3)COc3c4ccc4c3CN(C3CCC(=O)NC3=O)C4=O)c2)cc1 (stereo not shown) [Compound A179, N-(3-((7-(2,6-dioxopiperidin-3-yl)-6-oxo-7,8-dihydro-2H,6H-spiro[furo[2,3-e]isoindole-3,4′-piperidin]-1′-yl)methyl)phenyl)-4-methylbenzamide]	< 50 nM		> 80%
O=C1CC[C@H](N2Cc3c(ccc4c3OCC43CCN(Cc4cccc(-c5cnn(CC6COC6)c5)c4)CC3)C2=O)C(=O)N1 [Compound A271, (S)-3-(1′-(3-(1-(oxetan-3-ylmethyl)-1H-pyrazol-4-yl)benzyl)-6-oxo-6,8-dihydro-2H,7H-spiro[furo[2,3-e]isoindole-3,4′-piperidin]-7-yl)piperidine-2,6-dione]	> 500 nM	< 40%	
O=C1CCC(N2Cc3c(ccc4c3OCC43CCN(Cc4cnn(-c5ccccc5Cl)c4)CC3)C2=O)C(=O)N1 (stereo not shown) [Compound A331, 3-(1′-((1-(2-chlorophenyl)-1H-pyrazol-4-yl)methyl)-6-oxo-6,8-dihydro-2H,7H-spiro[furo[2,3-e]isoindole-3,4′-piperidin]-7-yl) piperidine-2,6-dione]	> 500 nM	< 40%	
O=C1CCC(N2Cc3c(ccc4c3OCC43CCN(Cc4ccn5ccnc5c4)CC3)C2=O)C(=O)N1 (stereo not shown) [Compound A78]	200 to 500 nM	40 to 60%	
O=C1CCC(N2Cc3c(ccc4c3OCC43CCN(Cc4cccc5cccnc45)CC3)C2=O)C(=O)N1 (stereo not shown) [Compound A41, 3-(6-oxo-1′-(quinolin-8-ylmethyl)-6,8-dihydro-2H,7H-spiro[furo[2,3-e]isoindole-3,4′-piperidin]-7-yl)piperidine-2,6-dione]	50 to 200 nM	60 to 80%	
O=C1CCC(N2Cc3c(ccc4c3OCC43CCN(Cc4cnn(-c5cccc(Cl)c5)c4)CC3)C2=O)C(=O)N1 (stereo not shown) [Compound A313, 3-(1′-((1-(3-chlorophenyl)-1H-pyrazol-4-yl)methyl)-6-oxo-6,8-dihydro-2H,7H-spiro[furo[2,3-e]isoindole-3,4′-piperidin]-7-yl)piperidine-2,6-dione]	50 to 200 nM	60 to 80%	
O=C1CC[C@H](N2Cc3c(ccc4c3OCC43CCN(Cc4cnn(CC5(c6ccccc6)CC5)c4)CC3)C2=O)C(=O)N1 [Compound A348, (S)-3-(6-oxo-1′-((1-((1-phenylcyclopropyl)methyl)-1H-pyrazol-4-yl)methyl)-6,8-dihydro-2H,7H-spiro[furo[2,3-e]isoindole-3,4′-piperidin]-7-yl)piperidine-2,6-dione]	< 50 nM	60 to 80%	
O=C1CCC(N2Cc3c(ccc4c3OCC43CCN(Cc4cccn5ccnc45)CC3)C2=O)C(=O)N1 (stereo not shown) [Compound A77, 3-(1′-(imidazo[1,2-a]pyridin-8-ylmethyl)-6-oxo-6,8-dihydro-2H,7H-spiro[furo[2,3-e]isoindole-3,4′-piperidin]-7-yl)piperidine-2,6-dione]	> 500 nM	40 to 60%	
O=C1CCC(N2Cc3c(ccc4c3OCC43CCN(Cc4cccc5c4CCCC5)CC3)C2=O)C(=O)N1 (stereo not shown) [Compound A208, 3-(6-oxo-1′-((5,6,7,8-tetrahydronaphthalen-1-yl)methyl)-6,8-dihydro-2H,7H-spiro[furo[2,3-e]isoindole-3,4′-piperidin]-7-yl)piperidine-2,6-dione]	< 50 nM	60 to 80%	
O=C1CC[C@H](N2Cc3c(ccc4c3OCC43CCN(Cc4ccn(-c5ccc(Cl)cc5)n4)CC3)C2=O)C(=O)N1 [Compound A315, (S)-3-(1′-((1-(4-chlorophenyl)-1H-pyrazol-3-yl)methyl)-6-oxo-6,8-dihydro-2H,7H-spiro[furo[2,3-e]isoindole-3,4′-piperidin]-7-yl)piperidine-2,6-dione]	50 to 200 nM	40 to 60%	
O=C1CCC(N2Cc3c(ccc4c3OCC43CCN(Cc4ccc5ccncc5c4)CC3)C2=O)C(=O)N1 (stereo not shown) [Compound A45]	200 to 500 nM	40 to 60%	
CC(C)(O)Cn1cc(-c2cccc(CN3CCC4(CC3)COc3c4ccc4c3CN([C@H]3CCC(=O)NC3=O)C4=O)c2)cn1 [Compound A292, (S)-3-(1′-(3-(1-(2-hydroxy-2-methylpropyl)-1H-pyrazol-4-yl)benzyl)-6-oxo-6,8-dihydro-2H,7H-spiro[furo[2,3-e]isoindole-3,4′-piperidin]-7-yl)piperidine-2,6-dione]	< 50 nM	60 to 80%	
O=C1CCC(N2Cc3c(ccc4c3OCC43CCN(Cc4cc(F)cc(F)c4)CC3)C2=O)C(=O)N1 (stereo not shown) [Compound A28, 3-(1′-(3,5-difluorobenzyl)-6-oxo-6,8-dihydro-2H,7H-spiro[furo[2,3-e]isoindole-3,4′-piperidin]-7-yl)piperidine-2,6-dione]	> 500 nM	40 to 60%	
COc1ncc(CN2CCC3(CC2)COc2c3ccc3c2CN(C2CCC(=O)NC2=O)C3=O)cn1 (stereo not shown) [Compound A26, 3-(1′-((2-methoxypyrimidin-5-yl)methyl)-6-oxo-6,8-dihydro-2H,7H-spiro[furo[2,3-e]isoindole-3,4′-piperidin]-7-yl)piperidine-2,6-dione]	> 500 nM	< 40%	
COCCn1cc2ccc(CN3CCC4(CC3)COc3c4ccc4c3CN([C@H]3CCC(=O)NC3=O)C4=O)cc2n1 [Compound A287, (S)-3-(1′-((2-(2-methoxyethyl)-2H-indazol-6-yl)methyl)-6-oxo-6,8-dihydro-2H,7H-spiro[furo[2,3-e]isoindole-3,4′-piperidin]-7-yl)piperidine-2,6-dione]	< 50 nM	60 to 80%	
O=C1CCC(N2Cc3c(ccc4c3OCC43CCN(Cc4ccn(-c5ccccc5)n4)CC3)C2=O)C(=O)N1 (stereo not shown) [Compound A251, 3-(6-oxo-1′-((1-phenyl-1H-pyrazol-3-yl)methyl)-6,8-dihydro-2H,7H-spiro[furo[2,3-e]isoindole-3,4′-piperidin]-7-yl)piperidine-2,6-dione]	> 500 nM	< 40%	
O=C1CCC(N2Cc3c(ccc4c3OCC43CCN(Cc4cccc5cnccc45)CC3)C2=O)C(=O)N1 (stereo not shown) [Compound A39, 3-(1′-(isoquinolin-5-ylmethyl)-6-oxo-6,8-dihydro-2H,7H-spiro[furo[2,3-e]isoindole-3,4′-piperidin]-7-yl)piperidine-2,6-dione]	< 50 nM	60 to 80%	
O=C1CC[C@H](N2Cc3c(ccc4c3OCC43CCN(Cc4cnn(CC5C[C@@H]5c5ccccc5)c4)CC3)C2=O)C(=O)N1 (stereo partly drawn) [Compound A347, (S)-3-(6-oxo-1′-((1-(((1S,2S)-2-phenylcyclopropyl)methyl)-1H-pyrazol-4-yl)methyl)-6,8-dihydro-2H,7H-spiro[furo[2,3-e]isoindole-3,4′-piperidin]-7-yl)piperidine-2,6-dione]	< 50 nM		
CC(C)c1ccc(CN2CCC3(CC2)COc2c3ccc3c2CN(C2CCC(=O)NC2=O)C3=O)cc1 (stereo not shown) [Compound A191, 3-(1′-(4-isopropylbenzyl)-6-oxo-6,8-dihydro-2H,7H-spiro[furo[2,3-e]isoindole-3,4′-piperidin]-7-yl)piperidine-2,6-dione]	> 500 nM	< 40%	
O=C1CCC(N2Cc3c(ccc4c3OCC43CCN(Cc4ccc(Cl)cc4)CC3)C2=O)C(=O)N1 (stereo not shown) [Compound A32]	> 500 nM	< 40%	
CS(=O)(=O)Nc1cccc(CN2CCC3(CC2)COc2c3ccc3c2CN(C2CCC(=O)NC2=O)C3=O)c1 (stereo not shown) [Compound A159, N-(3-((7-(2,6-dioxopiperidin-3-yl)-6-oxo-7,8-dihydro-2H,6H-spiro[furo[2,3-e]isoindole-3,4′-piperidin]-1′-yl)methyl)phenyl) methanesulfonamide]	> 500 nM	40 to 60%	
Cn1nccc1-c1cccc(CN2CCC3(CC2)COc2c3ccc3c2CN(C2CCC(=O)NC2=O)C3=O)c1 (stereo not shown) [Compound A144, 3-(1′-(3-(1-methyl-1H-pyrazol-5-yl)benzyl)-6-oxo-6,8-dihydro-2H,7H-spiro[furo[2,3-e]isoindole-3,4′-piperidin]-7-yl)piperidine-2,6-dione]	200 to 500 nM	40 to 60%	
O=C1CCC(N2Cc3c(ccc4c3OCC43CCN(Cc4cnn(Cc5ccc(Cl)cc5)c4)CC3)C2=O)C(=O)N1 (stereo not shown) [Compound A241, 3-(1′-((1-(4-chlorobenzyl)-1H-pyrazol-4-yl)methyl)-6-oxo-6,8-dihydro-2H,7H-spiro[furo[2,3-e]isoindole-3,4′-piperidin]-7-yl)piperidine-2,6-dione]	< 50 nM	60 to 80%	
CCOc1cccc(CN2CCC3(CC2)COc2c3ccc3c2CN(C2CCC(=O)NC2=O)C3=O)c1 (stereo not shown) [Compound A92, 3-(1′-(3-ethoxybenzyl)-6-oxo-6,8-dihydro-2H,7H-spiro[furo[2,3-e]isoindole-3,4′-piperidin]-7-yl)piperidine-2,6-dione]	50 to 200 nM	40 to 60%	
O=C1CCC(N2Cc3c(ccc4c3OCC43CCN(Cc4cnc5c(c4)CCCC5)CC3)C2=O)C(=O)N1 (stereo not shown) [Compound A325, 3-(6-oxo-1′-((5,6,7,8-tetrahydroquinolin-3-yl)methyl)-6,8-dihydro-2H,7H-spiro[furo [2,3-e]isoindole-3,4′-piperidin]-7-yl)piperidine-2,6-dione]	> 500 nM	< 40%	
O=C1CCC(N2Cc3c(ccc4c3OCCC43CCNCC3)C2=O)C(=O)N1 (stereo not shown) [Compound A2, 3-(7′-oxo-2′,3′,7′,9′-tetrahydro-8′H-spiro[piperidine-4,4′-pyrano[2,3-e]isoindol]-8′-yl)piperidine-2,6-dione]		< 40%	
